Experimental data: US20240299358A1, “COMPOSITIONS AND METHODS FOR DIAGNOSIS AND TREATMENT OF AUTOIMMUNE DISEASES” (DUKE UNIVERSITY, priority 2021, published 2024)

System: eHsp90
Test: In vivo imaging of eHsp90 expression in T cell transfer mouse model of IBD
Settings: 10 nmoles IV
Protocol: The T cell transfer model of IBD was utilized to evaluate the imaging potential of HS-131 for other autoimmune diseases. Naïve T cells isolated from female donor mice were transferred into SCID mice via IP injection. 3-5 weeks post transfer mice develop inflammation, an extended colon and epithelial hyperplasia. 24 hours post HS-131 tail vein injection mice were cryopreserved and imaged as previously mentioned. […] Experiments represent one mouse.
IBD Disease: On study day 0, Balb/C mice were terminated, and spleens obtained for CD4+CD45RBhigh cell isolation. After cells had been sorted and obtained, each animal received an IP injection of at a minimum 4×10^5 cells (200 μl/mouse injections). […]
CryoViz™ Imaging: Whole mice were imaged at 10.23 μm×10.23 μm in-plane resolution using an Olympus MVX-10 microscope with a 1X objective and 0.63× magnification and 40 μm section thickness, using the Cryo Viz™ (BioInVision, Inc., Cleveland, USA). CryoViz™ is a fully automated, serial sectioning-and-imaging system which provides 3-dimensional, tiled, microscopic anatomical bright field and molecular fluorescence images over large fields-of-view such as a whole mouse. Images were acquired using a dual band FITC/TxRed fluorescence filter (Chroma, Inc., Rockingham, VT), a liquid crystal RGB filter and a low-noise monochrome camera. […]

Cc1nn(-c2ccc(C(N)=O)c(NCCCOCCOCCOCCOCCOCCCNCc3ccc(C(=C\C=C4\N(CCCCS(=O)(=O)[O-])c5ccccc5C4(C)C)/C=C/C4=[N+](CCCCS(=O)(=O)O)c5ccccc5C4(C)C)cc3)c2)c2c1C(=O)CC(C)(C)C2 [HS-131]
uptake in joints or paws of IBD mouse (24 hours post injection): no uptake | fluorescence from the inflamed bowels of IBD mouse (24 hours post injection (FIG. 7A)): extensive fluorescent signaling
